Test results: ChEMBL document CHEMBL3044527, “Involvement of melanin synthesis and reactive oxygen species in phytotoxic action of l-DOPA in carrot cells” (2007)
Activity calls are given as the source filed them. The calls are words filed in the database; no cut-off is given here.

Experiments:
Format in all cases: functional
[1] = system: Daucus carota; experiment: Phytotoxicity against Daucus carota (carrot) cells grown in culture assessed as melanin per packed cell volume at 1 mM after 6 days by spectrophotometric analysis in presence of alpha-tocopherol (reference value: 27.2 ug per packed cell volume)
[2] = system: Daucus carota; experiment: Phytotoxicity against Daucus carota (carrot) cells grown in culture assessed as melanin per packed cell volume at 1 mM after 4 days by spectrophotometric analysis in presence of alpha-tocopherol (reference value: 21.3 ug per packed cell volume)
[3] = system: Daucus carota; experiment: Phytotoxicity against Daucus carota (carrot) cells grown in culture assessed as melanin per packed cell volume at 1 mM after 2 days by spectrophotometric analysis in presence of alpha-tocopherol (reference value: 23.7 ug per packed cell volume)
[4] = system: Daucus carota; experiment: Phytotoxicity against Daucus carota (carrot) cells grown in culture assessed as melanin per packed cell volume at 1 mM after 6 days by spectrophotometric analysis in presence of ascorbic acid (reference value: 27.2 ug per packed cell volume)
[5] = system: Daucus carota; experiment: Phytotoxicity against Daucus carota (carrot) cells grown in culture assessed as melanin per packed cell volume at 1 mM after 4 days by spectrophotometric analysis in presence of ascorbic acid (reference value: 21.3 ug per packed cell volume)
[6] = system: Daucus carota; experiment: Phytotoxicity against Daucus carota (carrot) cells grown in culture assessed as melanin per packed cell volume at 1 mM after 2 days by spectrophotometric analysis in presence of ascorbic acid (reference value: 23.7 ug per packed cell volume)
[7] = system: Daucus carota; experiment: Phytotoxicity against Daucus carota (carrot) cells grown in culture assessed as melanin per packed cell volume at 1 mM after 6 days by spectrophotometric analysis (reference value: 27.2 ug per packed cell volume)
[8] = system: Daucus carota; experiment: Phytotoxicity against Daucus carota (carrot) cells grown in culture assessed as melanin per packed cell volume at 1 mM after 4 days by spectrophotometric analysis (reference value: 21.3 ug per packed cell volume)
[9] = system: Daucus carota; experiment: Phytotoxicity against Daucus carota (carrot) cells grown in culture assessed as melanin per packed cell volume at 1 mM after 2 days by spectrophotometric analysis (reference value: 23.7 ug per packed cell volume)
[10] = system: Daucus carota; experiment: Phytotoxicity against Daucus carota (carrot) cells grown in culture assessed as melanin per packed cell volume at 0.1 mM after 6 days by spectrophotometric analysis (reference value: 27.2 ug per packed cell volume)
[11] = system: Daucus carota; experiment: Phytotoxicity against Daucus carota (carrot) cells grown in culture assessed as melanin per packed cell volume at 0.1 mM after 4 days by spectrophotometric analysis (reference value: 21.3 ug per packed cell volume)
[12] = system: Daucus carota; experiment: Phytotoxicity against Daucus carota (carrot) cells grown in culture assessed as melanin per packed cell volume at 0.1 mM after 2 days by spectrophotometric analysis (reference value: 23.7 ug per packed cell volume)
[13] = system: Daucus carota; experiment: Phytotoxicity against Daucus carota (carrot) cells grown in culture assessed as growth inhibition at 1 mM after 2 to 6 days in presence of SOD relative to control
[14] = system: Daucus carota; experiment: Phytotoxicity against Daucus carota (carrot) cells grown in culture assessed as growth inhibition at 1 mM after 2 to 6 days in presence of catalase relative to control
[15] = system: Daucus carota; experiment: Phytotoxicity against Daucus carota (carrot) cells grown in culture assessed as growth inhibition at 1 mM after 2 to 6 days in presence of alpha-tocopherol relative to control
[16] = system: Daucus carota; experiment: Phytotoxicity against Daucus carota (carrot) cells grown in culture assessed as growth inhibition at 1 mM after 6 days in presence of ascorbic acid relative to control
[17] = system: Daucus carota; experiment: Phytotoxicity against Daucus carota (carrot) cells grown in culture assessed as growth inhibition at 1 mM after 4 days in presence of ascorbic acid relative to control
[18] = system: Daucus carota; experiment: Phytotoxicity against Daucus carota (carrot) cells grown in culture assessed as growth inhibition at 1 mM after 2 days in presence of ascorbic acid relative to control
[19] = system: Daucus carota; experiment: Phytotoxicity against Daucus carota (carrot) cells grown in culture assessed as lipid peroxidation at 1 mM after 2 days by TBARS method in presence of alpha-tocopherol relative to control
[20] = system: Daucus carota; experiment: Phytotoxicity against Daucus carota (carrot) cells grown in culture assessed as lipid peroxidation at 1 mM after 2 days by TBARS method in presence of ascorbic acid relative to control
[21] = system: Daucus carota; experiment: Phytotoxicity against Daucus carota (carrot) cells grown in culture assessed as lipid peroxidation at 1 mM after 4 to 6 days by TBARS method relative to control
[22] = system: Daucus carota; experiment: Phytotoxicity against Daucus carota (carrot) cells grown in culture assessed as lipid peroxidation at 1 mM after 2 days by TBARS method relative to control
[23] = system: Daucus carota; experiment: Phytotoxicity against Daucus carota (carrot) cells grown in culture assessed as increase in ROS level at 1 mM after 24 hr by MPEC-based chemiluminescence assay in presence of SOD relative to control
[24] = system: Daucus carota; experiment: Phytotoxicity against Daucus carota (carrot) cells grown in culture assessed as increase in ROS level at 1 mM after 24 hr by MPEC-based chemiluminescence assay in presence of catalase relative to control
[25] = system: Daucus carota; experiment: Phytotoxicity against Daucus carota (carrot) cells grown in culture assessed as increase in ROS level at 1 mM after 24 hr by MPEC-based chemiluminescence assay in presence of ascorbic acid relative to control
[26] = system: Daucus carota; experiment: Phytotoxicity against Daucus carota (carrot) cells grown in culture assessed as increase in ROS level after 24 hr by MPEC-based chemiluminescence assay relative to control
[27] = system: Daucus carota; experiment: Phytotoxicity against Daucus carota (carrot) cells grown in culture assessed as growth inhibition at 1 mM after 8 days relative to control; settings: 192 h, values are per cent of control
[28] = system: Daucus carota; experiment: Phytotoxicity against Daucus carota (carrot) cells grown in culture assessed as growth inhibition at 1 mM after 6 days relative to control; settings: 144 h, values are per cent of control
[29] = system: Daucus carota; experiment: Phytotoxicity against Daucus carota (carrot) cells grown in culture assessed as growth inhibition at 1 mM after 2 days relative to control; settings: 48 h, values are per cent of control
[30] = system: Daucus carota; experiment: Phytotoxicity against Daucus carota (carrot) cells grown in culture assessed as growth inhibition at 1 mM after 4 days relative to control; settings: 96 h, values are per cent of control
[31] = system: Daucus carota; experiment: Phytotoxicity against Daucus carota (carrot) cells grown in culture assessed as growth inhibition at 0.1 mM after 8 days relative to control; settings: 192 h, values are per cent of control
[32] = system: Daucus carota; experiment: Phytotoxicity against Daucus carota (carrot) cells grown in culture assessed as growth inhibition at 0.1 mM after 4 days relative to control; settings: 96 h, values are per cent of control
[33] = system: Daucus carota; experiment: Phytotoxicity against Daucus carota (carrot) cells grown in culture assessed as growth inhibition at 0.1 mM after 6 days relative to control; settings: 144 h, values are per cent of control
[34] = system: Daucus carota; experiment: Phytotoxicity against Daucus carota (carrot) cells grown in culture assessed as growth inhibition at 0.1 mM after 2 days relative to control; settings: 48 h, values are per cent of control

N[C@@H](Cc1ccc(O)c(O)c1)C(=O)O [LEVODOPA]
Activity [1]: 28.1 µg | Activity [2]: 27.4 µg | Activity [3]: 27.9 µg | Activity [4]: 28.2 µg | Activity [5]: 22.9 µg | Activity [6]: 17.9 µg | Activity [7]: 66.1 µg | Activity [8]: 42.8 µg | Activity [9]: 28.4 µg | Activity [10]: 32.2 µg | Activity [11]: 31.7 µg | Activity [12]: 26.8 µg | Activity [13]: Active | Activity [14]: Active | Activity [15]: inactive | Activity [16]: inactive | Activity [17]: inactive | Activity [18]: inactive | Activity [19]: inactive | Activity [20]: inactive | Activity [21]: inactive | Activity [22]: Active | Activity [23]: Active | Activity [24]: Active | Activity [25]: inactive | Activity [26]: Active | growth, % of control at 1000 µM [27]: 64.9% | growth, % of control at 1000 µM [28]: 60.9% | growth, % of control at 1000 µM [29]: 62% | growth, % of control at 1000 µM [30]: 59.6% | growth, % of control at 100 µM [31]: 83.7% | growth, % of control at 100 µM [32]: 88.2% | growth, % of control at 100 µM [33]: 80.9% | growth, % of control at 100 µM [34]: 84.7%
